The values below come from paper PMC6934184, “Selective DNA-PKcs inhibition extends the therapeutic index of localized radiotherapy and chemotherapy” (The Journal of Clinical Investigation, 2019).

This test has as its target T1, SLK (Homo sapiens, UniProt Q9H2G2).
T1 construct: purchased Thermo Fisher Scientific (Life Technologies) SelectScreen
In words: SelectScreen LanthaScreen. Format: binding. The note with it: read-out: % displacement. The method, boiled down: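 Percent values come from Thermo SelectScreen profiling of NU5455, combining activity and binding assays. CSF1R was run in Z'LYTE format at Km app ATP, and CAMK1 in Adapta format with ATP listed at 10.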
For orientation: TR-FRET usually uses a lanthanide donor and a delayed reading to cut background.

T1 sequence (Q9H2G2 whole entry): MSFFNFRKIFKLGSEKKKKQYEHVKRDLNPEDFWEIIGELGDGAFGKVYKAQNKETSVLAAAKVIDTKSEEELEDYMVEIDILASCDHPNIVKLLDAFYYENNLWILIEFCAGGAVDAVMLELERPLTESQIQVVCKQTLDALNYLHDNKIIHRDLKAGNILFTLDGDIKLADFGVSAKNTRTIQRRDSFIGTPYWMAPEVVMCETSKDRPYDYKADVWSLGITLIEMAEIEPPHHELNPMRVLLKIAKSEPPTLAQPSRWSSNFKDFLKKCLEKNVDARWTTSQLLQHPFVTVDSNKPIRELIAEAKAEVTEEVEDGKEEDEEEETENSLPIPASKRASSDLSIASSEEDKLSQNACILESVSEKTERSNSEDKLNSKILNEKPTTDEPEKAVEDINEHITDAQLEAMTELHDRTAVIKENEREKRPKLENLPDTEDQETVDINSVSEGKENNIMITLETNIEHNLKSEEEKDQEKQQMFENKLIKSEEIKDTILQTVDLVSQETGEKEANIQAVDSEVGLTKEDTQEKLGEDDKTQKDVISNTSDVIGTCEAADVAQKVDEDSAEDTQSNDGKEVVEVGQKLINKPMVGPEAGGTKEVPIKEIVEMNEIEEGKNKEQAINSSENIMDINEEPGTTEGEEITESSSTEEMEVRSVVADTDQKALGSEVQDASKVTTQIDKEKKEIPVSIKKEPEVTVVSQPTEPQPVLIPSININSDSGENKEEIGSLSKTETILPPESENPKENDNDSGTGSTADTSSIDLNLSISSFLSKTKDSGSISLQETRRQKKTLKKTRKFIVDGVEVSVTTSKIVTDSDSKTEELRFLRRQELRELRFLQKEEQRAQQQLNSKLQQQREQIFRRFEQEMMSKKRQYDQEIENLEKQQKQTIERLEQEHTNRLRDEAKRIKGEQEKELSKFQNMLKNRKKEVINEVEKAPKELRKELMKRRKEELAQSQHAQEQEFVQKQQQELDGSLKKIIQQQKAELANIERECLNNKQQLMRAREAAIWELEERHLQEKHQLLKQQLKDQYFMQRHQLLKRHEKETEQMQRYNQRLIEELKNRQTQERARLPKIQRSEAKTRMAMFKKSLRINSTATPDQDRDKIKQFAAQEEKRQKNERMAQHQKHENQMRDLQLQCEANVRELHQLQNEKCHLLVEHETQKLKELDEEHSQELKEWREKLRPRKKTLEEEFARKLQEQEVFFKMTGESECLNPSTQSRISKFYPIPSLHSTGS

With `CN(C(=O)CN1CCOCC1)c1ccc2sc3c(-c4cccc5c(=O)cc(N6CC7CCC(C6)O7)oc45)cccc3c2c1` [NU5455], the inhibition at 1 µM stood at 1.5%.
